Tested on: MuRF1
Assay: Expression of MuRF1 in dexamethasone-induced muscle atrophy rats
Format: in vivo, SD rats
Settings: versus increase induced by dexamethasone; MIX 100 mg/kg, PC 320 mg/kg oral; FIG. 7
Excerpt: In the process of treating muscle atrophy, the effects of the composite (extracts) of leaves of mulberry and Angelica keiskei on the expression of MyoD (a factor involved in muscle production) and on the expression of MuRF1 (a factor related to muscle atrophy) were confirmed.

**Q.** How did the “expression of MuRF1” value turn out when `CC(C)(O)CC(=O)O` [PC, 3-hydroxy-3-methylbutyric acid] was run?
**A.** tended to decrease

Reference: patent US20250064877A1, “COMPOSITION FOR INCREASING MUSCLE STRENGTH CONTAINING COMPLEX EXTRACT OF ANGELICA KEISKEI AND LEAVES OF MORUS ALBA L” (HAMSOA PHARMACEUTICAL CO., LTD., priority 2022, published 2025)
